Data reported in the kinase profiling compilation of Christmann-Franck et al. (2016).

Key:
Assay in all cases: radiometric filter-binding kinase assay
[1] = target: MINK1 (human) (UniProt Q8N4C8)
[2] = target: MAPK10 (human) (UniProt P53779)
[3] = target: PHKG1 (human) (UniProt Q16816)
[4] = system: PAK2 (human), Q13177 [T402E]
[5] = target: MARK3 (human) (UniProt P27448)
[6] = target: SRPK1 (human) (UniProt Q96SB4)
[7] = target: CLK2 (human) (UniProt P49760)
[8] = target: HIPK2 (human) (UniProt Q9H2X6)
[9] = target: DYRK1A (human) (UniProt Q13627)
[10] = system: ROCK2 (rat); settings: accession and sequence are those of the human protein
[11] = target: MAPK13 (human) (UniProt O15264)
[12] = target: MAPK11 (human) (UniProt Q15759)
[13] = target: IGF1R (human) (UniProt P08069)
[14] = target: CAMKK2 (human) (UniProt Q96RR4)
[15] = target: FGFR1 (human) (UniProt P11362)
[16] = target: MAPK8 (human) (UniProt P45983)
[17] = target: GCK (human) (UniProt Q12851)
Chain of GCK (human) (Q12851 whole entry, looked up): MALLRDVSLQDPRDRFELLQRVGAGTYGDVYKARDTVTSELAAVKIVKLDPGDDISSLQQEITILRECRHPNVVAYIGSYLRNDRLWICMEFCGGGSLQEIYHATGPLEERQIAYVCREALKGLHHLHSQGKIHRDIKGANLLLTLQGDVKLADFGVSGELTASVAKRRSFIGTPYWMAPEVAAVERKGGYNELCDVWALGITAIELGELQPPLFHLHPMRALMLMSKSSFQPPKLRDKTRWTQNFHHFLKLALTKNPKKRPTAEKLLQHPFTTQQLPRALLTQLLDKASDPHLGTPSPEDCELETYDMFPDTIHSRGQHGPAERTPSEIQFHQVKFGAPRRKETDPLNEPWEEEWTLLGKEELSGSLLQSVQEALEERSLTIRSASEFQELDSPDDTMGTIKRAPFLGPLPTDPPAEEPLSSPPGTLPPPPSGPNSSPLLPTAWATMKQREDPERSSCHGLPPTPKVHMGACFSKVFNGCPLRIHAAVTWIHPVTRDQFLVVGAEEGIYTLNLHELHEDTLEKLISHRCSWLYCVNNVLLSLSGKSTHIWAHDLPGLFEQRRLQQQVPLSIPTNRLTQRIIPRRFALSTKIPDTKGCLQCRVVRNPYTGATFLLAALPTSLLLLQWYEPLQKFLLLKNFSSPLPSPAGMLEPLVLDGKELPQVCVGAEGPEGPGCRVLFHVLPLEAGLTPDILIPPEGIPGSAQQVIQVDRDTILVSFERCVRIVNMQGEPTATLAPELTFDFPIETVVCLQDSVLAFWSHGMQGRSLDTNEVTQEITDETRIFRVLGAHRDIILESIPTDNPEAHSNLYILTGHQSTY

[18] = target: MAPKAPK5 (human) (UniProt Q8IW41)
[19] = target: DAPK1 (human) (UniProt P53355)
[20] = target: PIM3 (human) (UniProt Q86V86)
[21] = target: YES1 (human) (UniProt P07947)
[22] = target: HIPK1 (human) (UniProt Q86Z02)
Chain of HIPK1 (human) (Q86Z02 whole entry, looked up): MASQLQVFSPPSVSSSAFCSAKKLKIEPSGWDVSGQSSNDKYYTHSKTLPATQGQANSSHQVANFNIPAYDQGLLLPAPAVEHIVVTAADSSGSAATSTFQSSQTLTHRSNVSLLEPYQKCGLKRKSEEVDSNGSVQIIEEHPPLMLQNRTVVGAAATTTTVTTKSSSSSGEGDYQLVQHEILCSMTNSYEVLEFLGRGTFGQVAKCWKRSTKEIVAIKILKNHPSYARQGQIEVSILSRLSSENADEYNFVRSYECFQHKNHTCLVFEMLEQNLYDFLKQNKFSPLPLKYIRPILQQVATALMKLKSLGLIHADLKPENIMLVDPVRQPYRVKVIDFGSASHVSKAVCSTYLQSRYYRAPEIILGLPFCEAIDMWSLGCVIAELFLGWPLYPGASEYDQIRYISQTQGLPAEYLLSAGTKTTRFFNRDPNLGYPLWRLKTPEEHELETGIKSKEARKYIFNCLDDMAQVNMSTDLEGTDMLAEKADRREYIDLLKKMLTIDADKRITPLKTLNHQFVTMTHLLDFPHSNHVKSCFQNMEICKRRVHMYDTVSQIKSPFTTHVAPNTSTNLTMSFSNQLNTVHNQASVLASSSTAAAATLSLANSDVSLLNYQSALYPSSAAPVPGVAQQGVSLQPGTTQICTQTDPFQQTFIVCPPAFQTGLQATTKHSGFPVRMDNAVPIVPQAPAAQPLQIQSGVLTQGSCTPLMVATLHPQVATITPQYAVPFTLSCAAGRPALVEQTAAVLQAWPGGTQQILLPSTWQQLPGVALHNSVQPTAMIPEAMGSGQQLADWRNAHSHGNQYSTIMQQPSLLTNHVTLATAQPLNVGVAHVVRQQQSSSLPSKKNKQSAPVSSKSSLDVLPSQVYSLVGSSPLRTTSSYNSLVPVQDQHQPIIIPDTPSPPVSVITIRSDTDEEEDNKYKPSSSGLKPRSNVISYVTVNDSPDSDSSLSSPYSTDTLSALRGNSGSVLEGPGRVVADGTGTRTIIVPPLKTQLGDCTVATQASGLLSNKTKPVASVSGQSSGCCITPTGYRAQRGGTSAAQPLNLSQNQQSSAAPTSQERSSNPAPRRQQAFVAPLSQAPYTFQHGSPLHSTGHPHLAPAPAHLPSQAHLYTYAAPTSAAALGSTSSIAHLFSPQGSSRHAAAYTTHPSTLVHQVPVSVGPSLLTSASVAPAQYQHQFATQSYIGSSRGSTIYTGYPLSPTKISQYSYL

[23] = target: DYRK3 (human) (UniProt O43781)
[24] = target: BRSK2 (human) (UniProt Q8IWQ3)
[25] = system: SGK1 (human), O00141 [S422D]
[26] = target: CHEK1 (human) (UniProt O14757)
[27] = target: MKNK1 (human) (UniProt Q9BUB5)
Chain of MKNK1 (human) (Q9BUB5 whole entry, looked up): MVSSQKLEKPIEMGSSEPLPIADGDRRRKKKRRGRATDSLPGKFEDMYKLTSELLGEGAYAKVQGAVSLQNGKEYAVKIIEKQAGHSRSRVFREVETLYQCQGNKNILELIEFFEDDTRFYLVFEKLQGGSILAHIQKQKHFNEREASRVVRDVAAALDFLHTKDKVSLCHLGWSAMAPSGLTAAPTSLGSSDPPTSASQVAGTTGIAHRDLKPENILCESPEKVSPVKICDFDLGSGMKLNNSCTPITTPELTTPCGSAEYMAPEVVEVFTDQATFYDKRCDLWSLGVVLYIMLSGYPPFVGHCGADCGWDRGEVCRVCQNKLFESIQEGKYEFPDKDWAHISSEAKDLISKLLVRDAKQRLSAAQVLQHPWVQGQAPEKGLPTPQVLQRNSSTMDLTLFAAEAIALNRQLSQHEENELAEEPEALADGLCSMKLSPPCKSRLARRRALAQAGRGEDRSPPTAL

[28] = system: LCK (mouse); settings: accession and sequence are those of the human protein
[29] = target: CaMK1 (human) (UniProt Q14012)
[30] = target: CSNK2A1 (human) (UniProt P68400)
[31] = target: TAOK1 (human) (UniProt Q7L7X3)
Chain of TAOK1 (human) (Q7L7X3 whole entry, looked up): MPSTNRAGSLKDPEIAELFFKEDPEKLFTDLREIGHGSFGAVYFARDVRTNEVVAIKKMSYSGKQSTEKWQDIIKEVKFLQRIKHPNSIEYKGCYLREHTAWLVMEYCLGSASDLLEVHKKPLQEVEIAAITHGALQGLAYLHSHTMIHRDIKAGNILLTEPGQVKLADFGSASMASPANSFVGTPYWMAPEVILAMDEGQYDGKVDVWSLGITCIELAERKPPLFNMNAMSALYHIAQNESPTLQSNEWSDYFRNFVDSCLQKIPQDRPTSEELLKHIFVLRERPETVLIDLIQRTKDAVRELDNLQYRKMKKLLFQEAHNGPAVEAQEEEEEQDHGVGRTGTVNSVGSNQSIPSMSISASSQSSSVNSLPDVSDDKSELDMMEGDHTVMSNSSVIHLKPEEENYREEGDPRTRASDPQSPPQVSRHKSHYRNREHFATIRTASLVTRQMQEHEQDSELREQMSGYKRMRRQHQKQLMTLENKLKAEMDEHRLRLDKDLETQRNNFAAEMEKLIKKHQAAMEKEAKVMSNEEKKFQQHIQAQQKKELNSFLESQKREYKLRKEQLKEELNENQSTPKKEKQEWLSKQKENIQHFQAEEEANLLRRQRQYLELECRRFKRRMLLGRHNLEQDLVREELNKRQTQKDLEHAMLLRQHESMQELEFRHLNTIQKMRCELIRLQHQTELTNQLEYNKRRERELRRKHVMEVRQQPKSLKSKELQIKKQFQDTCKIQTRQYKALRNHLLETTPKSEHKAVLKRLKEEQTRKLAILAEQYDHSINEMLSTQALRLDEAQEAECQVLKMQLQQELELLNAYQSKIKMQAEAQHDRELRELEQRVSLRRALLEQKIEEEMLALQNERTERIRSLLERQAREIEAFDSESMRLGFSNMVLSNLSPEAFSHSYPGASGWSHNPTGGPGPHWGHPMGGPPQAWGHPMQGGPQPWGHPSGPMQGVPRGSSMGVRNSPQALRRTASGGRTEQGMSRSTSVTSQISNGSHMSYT

[32] = target: AURKB (human) (UniProt Q96GD4)
[33] = target: EPHB2 (human) (UniProt P29323)
[34] = target: TBK1 (human) (UniProt Q9UHD2)
[35] = target: JAK2 JH1 JH2 (human) (UniProt O60674)
[36] = target: STK3 (human) (UniProt Q13188)

Chain of CLK2 (human) (P49760 whole entry, looked up): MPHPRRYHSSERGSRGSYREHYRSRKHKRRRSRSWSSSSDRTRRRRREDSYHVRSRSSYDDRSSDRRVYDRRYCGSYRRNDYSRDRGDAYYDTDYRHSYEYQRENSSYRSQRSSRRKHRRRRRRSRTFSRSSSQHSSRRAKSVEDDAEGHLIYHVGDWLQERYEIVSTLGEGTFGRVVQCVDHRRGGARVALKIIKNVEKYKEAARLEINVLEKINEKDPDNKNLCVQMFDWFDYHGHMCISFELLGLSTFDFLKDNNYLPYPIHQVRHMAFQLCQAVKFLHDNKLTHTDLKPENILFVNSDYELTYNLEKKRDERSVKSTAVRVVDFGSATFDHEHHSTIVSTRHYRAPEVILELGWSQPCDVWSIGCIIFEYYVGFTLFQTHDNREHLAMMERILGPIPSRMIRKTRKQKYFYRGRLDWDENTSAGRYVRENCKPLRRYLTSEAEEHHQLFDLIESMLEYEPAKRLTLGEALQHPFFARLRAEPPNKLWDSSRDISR
Chain of PHKG1 (human) (Q16816 whole entry, looked up): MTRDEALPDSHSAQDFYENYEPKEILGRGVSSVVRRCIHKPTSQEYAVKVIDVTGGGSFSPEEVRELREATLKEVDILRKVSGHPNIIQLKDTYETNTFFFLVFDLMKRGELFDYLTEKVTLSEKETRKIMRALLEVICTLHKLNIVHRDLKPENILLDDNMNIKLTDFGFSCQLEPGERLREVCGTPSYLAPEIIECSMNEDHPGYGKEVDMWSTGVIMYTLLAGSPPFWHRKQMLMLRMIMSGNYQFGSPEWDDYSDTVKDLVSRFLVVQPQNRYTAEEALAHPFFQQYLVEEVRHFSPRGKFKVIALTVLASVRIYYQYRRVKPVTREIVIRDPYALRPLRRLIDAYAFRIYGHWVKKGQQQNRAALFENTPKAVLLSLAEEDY
Chain of PAK2 (human), Q13177 [T402E] (Q13177 whole entry T402E, looked up): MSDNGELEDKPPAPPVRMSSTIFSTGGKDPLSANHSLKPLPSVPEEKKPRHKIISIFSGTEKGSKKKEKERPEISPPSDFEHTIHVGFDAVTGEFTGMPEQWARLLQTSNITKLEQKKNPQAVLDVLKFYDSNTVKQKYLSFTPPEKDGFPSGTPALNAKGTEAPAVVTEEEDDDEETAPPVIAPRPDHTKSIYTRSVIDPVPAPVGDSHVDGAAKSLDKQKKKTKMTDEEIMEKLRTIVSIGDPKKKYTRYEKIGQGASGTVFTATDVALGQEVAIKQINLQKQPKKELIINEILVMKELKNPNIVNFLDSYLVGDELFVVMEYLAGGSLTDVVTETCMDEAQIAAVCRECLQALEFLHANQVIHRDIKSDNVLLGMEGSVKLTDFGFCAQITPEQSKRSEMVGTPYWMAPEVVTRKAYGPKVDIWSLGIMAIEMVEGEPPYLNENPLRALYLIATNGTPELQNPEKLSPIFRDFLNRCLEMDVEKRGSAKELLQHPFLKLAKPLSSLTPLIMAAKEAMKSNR

CCn1c(-c2nonc2N)nc2cncc(CNC3CCNCC3)c21
residual activity ([1]; compound 0.1 µM): 107% | residual activity ([1]; compound 1.0 µM): 96% | residual activity ([1]; compound 10.0 µM): 72% | residual activity ([2]; compound 0.1 µM): 97% | residual activity ([2]; compound 10.0 µM): 95% | residual activity ([3]; compound 0.1 µM): 101% | residual activity ([3]; compound 1.0 µM): 101% | residual activity ([3]; compound 10.0 µM): 75% | residual activity ([4]; compound 0.1 µM): 99% | residual activity ([4]; compound 1.0 µM): 93% | residual activity ([4]; compound 10.0 µM): 90% | residual activity ([5]; compound 0.1 µM): 88% | residual activity ([5]; compound 1.0 µM): 87% | residual activity ([5]; compound 10.0 µM): 56% | residual activity ([6]; compound 0.1 µM): 94% | residual activity ([6]; compound 1.0 µM): 99% | residual activity ([6]; compound 10.0 µM): 86% | residual activity ([7]; compound 0.1 µM): 107% | residual activity ([7]; compound 1.0 µM): 71% | residual activity ([7]; compound 10.0 µM): 22% | residual activity ([8]; compound 0.1 µM): 112% | residual activity ([8]; compound 1.0 µM): 82% | residual activity ([8]; compound 10.0 µM): 43% | residual activity ([9]; compound 0.1 µM): 92% | residual activity ([9]; compound 1.0 µM): 73% | residual activity ([9]; compound 10.0 µM): 35% | residual activity ([10]; compound 0.1 µM): 31% | residual activity ([10]; compound 1.0 µM): 23% | residual activity ([10]; compound 10.0 µM): 17% | residual activity ([11]; compound 0.1 µM): 100% | residual activity ([11]; compound 1.0 µM): 99% | residual activity ([11]; compound 10.0 µM): 88% | residual activity ([12]; compound 0.1 µM): 102% | residual activity ([12]; compound 1.0 µM): 96% | residual activity ([12]; compound 10.0 µM): 89% | residual activity ([13]; compound 0.1 µM): 96% | residual activity ([13]; compound 1.0 µM): 107% | residual activity ([13]; compound 10.0 µM): 105% | residual activity ([14]; compound 1.0 µM): 128% | residual activity ([14]; compound 10.0 µM): 105% | residual activity ([15]; compound 0.1 µM): 101% | residual activity ([15]; compound 1.0 µM): 115% | residual activity ([15]; compound 10.0 µM): 121% | residual activity ([16]; compound 0.1 µM): 112% | residual activity ([16]; compound 1.0 µM): 105% | residual activity ([16]; compound 10.0 µM): 101% | residual activity ([17]; compound 0.1 µM): 91% | residual activity ([17]; compound 1.0 µM): 94% | residual activity ([17]; compound 10.0 µM): 71% | residual activity ([18]; compound 0.1 µM): 94% | residual activity ([18]; compound 1.0 µM): 95% | residual activity ([18]; compound 10.0 µM): 96% | residual activity ([19]; compound 0.1 µM): 111% | residual activity ([19]; compound 1.0 µM): 84% | residual activity ([19]; compound 10.0 µM): 35% | residual activity ([20]; compound 0.1 µM): 76% | residual activity ([20]; compound 1.0 µM): 36% | residual activity ([20]; compound 10.0 µM): 13% | residual activity ([21]; compound 0.1 µM): 108% | residual activity ([21]; compound 1.0 µM): 98% | residual activity ([21]; compound 10.0 µM): 86% | residual activity ([22]; compound 0.1 µM): 107% | residual activity ([22]; compound 1.0 µM): 107% | residual activity ([22]; compound 10.0 µM): 84% | residual activity ([23]; compound 0.1 µM): 107% | residual activity ([23]; compound 1.0 µM): 93% | residual activity ([23]; compound 10.0 µM): 72% | residual activity ([24]; compound 0.1 µM): 96% | residual activity ([24]; compound 1.0 µM): 89% | residual activity ([24]; compound 10.0 µM): 41% | residual activity ([25]; compound 0.1 µM): 82% | residual activity ([25]; compound 1.0 µM): 55% | residual activity ([25]; compound 10.0 µM): 25% | residual activity ([26]; compound 0.1 µM): 89% | residual activity ([26]; compound 1.0 µM): 88% | residual activity ([26]; compound 10.0 µM): 53% | residual activity ([27]; compound 0.1 µM): 91% | residual activity ([27]; compound 1.0 µM): 100% | residual activity ([27]; compound 10.0 µM): 90% | residual activity ([28]; compound 0.1 µM): 102% | residual activity ([28]; compound 1.0 µM): 99% | residual activity ([28]; compound 10.0 µM): 94% | residual activity ([29]; compound 0.1 µM): 119% | residual activity ([29]; compound 1.0 µM): 109% | residual activity ([29]; compound 10.0 µM): 109% | residual activity ([30]; compound 0.1 µM): 71% | residual activity ([30]; compound 1.0 µM): 74% | residual activity ([30]; compound 10.0 µM): 86% | residual activity ([31]; compound 0.1 µM): 100% | residual activity ([31]; compound 1.0 µM): 108% | residual activity ([31]; compound 10.0 µM): 104% | residual activity ([32]; compound 0.1 µM): 85% | residual activity ([32]; compound 1.0 µM): 76% | residual activity ([32]; compound 10.0 µM): 71% | residual activity ([33]; compound 0.1 µM): 115% | residual activity ([33]; compound 1.0 µM): 91% | residual activity ([33]; compound 10.0 µM): 87% | residual activity ([34]; compound 0.1 µM): 88% | residual activity ([34]; compound 1.0 µM): 93% | residual activity ([34]; compound 10.0 µM): 78% | residual activity ([35]; compound 0.1 µM): 108% | residual activity ([35]; compound 1.0 µM): 103% | residual activity ([35]; compound 10.0 µM): 110% | residual activity ([36]; compound 0.1 µM): 106% | residual activity ([36]; compound 1.0 µM): 97% | residual activity ([36]; compound 10.0 µM): 71%
